Assay: Irritation of the eyes by surfactants used in eye-drops
Text: In an attempt to solve these problems, studies have been conducted with various surfactants which are currently used for formulating medical substances with low solubility in water, especially the most commonly used surfactants polysorbate 80 and polyoxyethylene hydrogenated castor oil.

## Polyoxyethylene hydrogenated castor oil
  irritation of the eyes: strongly irritate the eyes

From patent US6582718B2, “Cyclosporin compositions” (Novartis AG, priority 1992, dated 2003)
